In patent publication US20250122148A1, “HIGH-SELECTIVITY KCNQ4 POTASSIUM CHANNEL AGONIST, PREPARATION METHOD THEREFOR AND USE THEREOF” (SHANGHAI INSTITUTE OF MATERIA MEDICA, CHINESE ACADEMY OF …, priority 2022, published 2025):

What was measured:
[1] = molecular target: T1, human KCNQ4 (Homo sapiens, UniProt P56696); experiment: Whole-cell voltage clamp of KCNQ4 channel current in transfected CHO-K1 cells; assay type: cell-based; set-up: key to KCNQ4 (IDrug/IControl 100 nM): IDrug/IControl current amplitude ratio at -10 mV; conditions: for KCNQ4 (IDrug/IControl 100 nM): activation efficacy, 100 nM compound, -10 mV test pulse, CHO-K1 cells, mean ± SEM
T1 construct: host or cells: CHO-K1 (Chinese hamster ovary), transient transfection with Lipofectamine 2000, co-transfected with GFP
Procedure: (§1) The cell line used in the electrophysiological experiments was the Chinese hamster ovary cell line (CHO-K1); KCNQ cDNA was transformed into E. coli, expressed in E. coli, and then confirmed by plasmid extraction and sequencing.
(§2) CHO-K1 cells (Cell Bank of Chinese Academy of Sciences), medium formula: 50/50 DMEM/F-12 (Gibco), supplemented with 10% fetal bovine serum (FBS) (Gibco, Australia) and 2 mM L-glutamine (Invitrogen). Transfection and expression of KCNQ channels: 24 hours before transfection, cells were digested with trypsin (Sigma, China) and spread in a 6-well plate. Lipofectamine2000™ reagent (Invitrogen) was used for transfection, and the experiment was carried out according to the procedures provided. Twenty-four hours after transfection, cells were digested and seeded onto poly-L-lysine (Sigma)-soaked slides. After co-transfected with GFP (green fluorescent protein), the transfected cells were determined under a fluorescence microscope (Olympus). The human KCNQ2 plasmid (NCBI: NM_172107.4) and human KCNQ4 plasmid (NCBI: NM_004700.4) used were synthesized by Beijing Genomics Institute and constructed in the pcDNA3.1(+) vector plasmid. KCNQ2 and KCNQ4 plasmids were confirmed by plasmid extraction and sequencing after transformation into E. coli DH5α.
(§3) Whole-cell voltage clamp experiments were carried out at room temperature (23˜25° C.), where Axopatch-700B amplifier (Molecular Devices, Sunnyvale, CA) and Digidata 1440A (Molecular Devices) as digital-to-analog converter were used, pClamp 10.0 software (Molecular Devices, Sunnyvale, CA) was used for signal acquisition, the signal was filtered at 2 kHz, the sampling frequency was 10 kHz. Series resistance compensation was used and set to 60%. Pipettes were pulled from Borosilicate glass capillaries (World Precision Instruments, Sarasota, FL), and the resistance of the pipettes filled with an intracellular fluid was 3-5 MΩ. The perfusion drug delivery system was BPS-8 (ALA Scientific Instruments, Westburg, NY) with a speed of approximately 1 mL/min.
(§4) Intracellular fluid formulation for electrophysiological experiments: 145 mM KCl, 1 mM MgCl2, 5 mM EGTA, 10 mM HEPES, 5 mM MgATP (adjusted to pH=7.3 with KOH).
(§5) Extracellular fluid formulation for electrophysiological experiments: 140 mM NaCl, 5 mM KCl, 2 mM CaCl2), 1.5 mM MgCl2, 10 mM HEPES, 10 mM glucose (adjusted to pH=7.4 with NaOH).
(§6) To record the whole-cell currents of KCNQ2 and KCNQ4 channels, the cells were clamped at a holding potential of −120 mV, and then depolarized to −10 mV for a duration of 1500 ms, and the stimulation frequency was 0.1 Hz. The current amplitudes at the −10 mV test pulse before (IControl) and after (IDrug) the perfusion of the compounds were collected to determine the activation efficacy (IDrug/IControl).
(§7) A certain mass of the compound was weighed and dissolved in DMSO to prepare a 20 mM DMSO stock solution which was frozen and stored at −20° C. until use. […] This kind of concentration of DMSO has no effect on the detected KCNQ channel current. For example, to prepare 100 nM and 1 μM compound solutions, the gradient dilution method was as follows: 5 μL DMSO stock solution was first pipetted and added to 10 mL of extracellular fluid, and was dissolved evenly to obtain a 10 μM compound solution; then 1 mL of 10 μM compound solution was pipetted and added to 9 mL of extracellular fluid, dissolved evenly to obtain a 1 μM compound solution; then 1 mL of 1 μM compound was pipetted and added to 9 mL of extracellular fluid, dissolved evenly to obtain a 100 nM compound solution.
(§8) Data collection, analysis and processing were performed using pClamp10 (Molecular Devices, Sunnyvale, CA), GraphPad Prism 5 (GraphPad Software, San Diego, CA) and Excel (Microsoft Corporation) software. All data are expressed as mean±standard error. (Mean±SEM), significance analysis was performed using unpaired student's t-test. When P<0.05, the difference between the two groups was considered statistically significant. […]

[2] = molecular target: T2, human KCNQ2 (Homo sapiens, UniProt O43526); experiment: Whole-cell voltage clamp of KCNQ2 channel current in transfected CHO-K1 cells; assay type: cell-based; set-up: key to KCNQ2 (IDrug/IControl 100 nM): IDrug/IControl current amplitude ratio at -10 mV; conditions: for KCNQ2 (IDrug/IControl 100 nM): activation efficacy, 100 nM compound, -10 mV test pulse, CHO-K1 cells, mean ± SEM
T2 construct: host or cells: CHO-K1 (Chinese hamster ovary), transient transfection with Lipofectamine 2000, co-transfected with GFP
Procedure: as §1, §2, §3, §4, §5, §6, §7, §8

[3] = in vitro electrophysiological experiments

Structure (SMILES) | KCNQ4 (IDrug/IControl 100 nM) [1] | KCNQ4 agonistic activity (in words) [1, 3] | KCNQ2 (IDrug/IControl 100 nM) [2] | KCNQ2 agonistic activity (in words) [2, 3]
C#CCN(Cc1ccc(F)cc1)c1ccc(NC(=O)OC(C)(C)C)cc1 [Compound K31] | 3.06 ± 0.61 | still had good KCNQ4 agonistic activity | 1.07 ± 0.04 | lost KCNQ2 agonistic activity
C#CCN(Cc1ccc(I)cc1)c1ccc(NC(=O)OC(C)(C)C)cc1 [Compound K37] | 3.28 ± 0.21 |  | 1.02 ± 0.04 | 
C#CCN(Cc1ccc(C(C)(C)C)cc1)c1ccc(NC(=O)OC(C)(C)C)cc1 [Compound K34] | 4.40 ± 0.62 |  | 1.07 ± 0.04 | 
C#CCN(Cc1ccccc1F)c1ccc(NC(=O)OC(C)(C)C)cc1 [Compound K32] | 2.50 ± 0.28 |  | 1.05 ± 0.02 | 
C#CCN(Cc1ccc([N+](=O)[O-])cc1)c1ccc(NC(=O)OC(C)(C)C)cc1 [Compound K38] | 1.66 ± 0.19 |  | 0.96 ± 0.01 | 
C#CCN(Cc1ccc(Br)cc1)c1ccc(NC(=O)OC(C)(C)C)cc1 [Compound K36] | 3.50 ± 0.28 |  | 1.05 ± 0.03 | 

The remaining lines, values ahead:

KCNQ4 (IDrug/IControl 100 nM) [1] | KCNQ4 agonistic activity (in words) [1, 3] | KCNQ2 (IDrug/IControl 100 nM) [2] | KCNQ2 agonistic activity (in words) [2, 3] | Structure (SMILES)
1.69 ± 0.19 |  | 1.03 ± 0.02 |  | C#CCN(Cc1ccc(F)c(C(F)(F)F)c1)c1ccc(NC(=O)OC(C)(C)C)cc1 [Compound K41]
1.46 ± 0.02 |  | 1.10 ± 0.02 |  | C#CCN(Cc1ccc(F)c(F)c1)c1ccc(NC(=O)OC(C)(C)C)cc1 [Compound K39]
3.00 ± 0.18 |  | 1.06 ± 0.03 |  | C#CCN(Cc1cccc(F)c1)c1ccc(NC(=O)OC(C)(C)C)cc1 [Compound K33]
2.72 ± 0.38 |  | 0.98 ± 0.00 |  | C#CCN(Cc1ccc(Br)c(F)c1)c1ccc(NC(=O)OC(C)(C)C)cc1 [Compound K43]
1.35 ± 0.08 |  | 1.02 ± 0.02 |  | C#CCN(Cc1ccc(F)c([N+](=O)[O-])c1)c1ccc(NC(=O)OC(C)(C)C)cc1 [Compound K42]
1.26 ± 0.16 |  | 0.97 ± 0.02 |  | C#CCN(Cc1ccc(F)c(C#N)c1)c1ccc(NC(=O)OC(C)(C)C)cc1 [Compound K40]
3.30 ± 0.62 |  | 0.98 ± 0.03 |  | C#CCN(Cc1ccc(Cl)cc1)c1ccc(NC(=O)OC(C)(C)C)cc1 [Compound K35]
